Laboratory results taken from patent publication US10023557B2 (LifeSci Pharmaceuticals, Inc., priority 2015, dated 2018).

Tests used:
[1] = target: human plasma kallikrein (Homo sapiens (Human), UniProt P03952); assay: In vitro enzyme inhibition of human plasma kallikrein (PFR-AMC cleavage); format: biochemical; conditions: Pro-Phe-Arg-AMC substrate, 37° C., read-out: hPK IC50
How it was run: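 Human plasma kallikrein and compound, diluted in 50 mM Tris-HCl pH 7.5, 150 mM NaCl, 0.01% Triton X-100, preincubated 5 min at 37 °C before PFR-AMC was added.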

[2] = target: cellular kallikrein activity (Homo sapiens (Human), UniProt P03952); assay: In vitro cellular assay (contact assay): kallikrein activity in ellagic acid-activated human plasma, Z-FR-2-AMC substrate; format: biochemical; conditions: human plasma activated with ellagic acid, 37° C.
Chain of cellular kallikrein activity (P03952 391-638): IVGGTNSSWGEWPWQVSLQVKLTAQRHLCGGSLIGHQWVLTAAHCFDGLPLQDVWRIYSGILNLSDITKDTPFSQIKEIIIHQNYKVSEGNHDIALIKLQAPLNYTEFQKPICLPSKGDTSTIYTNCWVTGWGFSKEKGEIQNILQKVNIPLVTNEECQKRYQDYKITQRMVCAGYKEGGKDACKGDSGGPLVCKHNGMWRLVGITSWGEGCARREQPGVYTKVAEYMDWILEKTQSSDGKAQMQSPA
Chain of cellular kallikrein activity (P03952 20-390 partner): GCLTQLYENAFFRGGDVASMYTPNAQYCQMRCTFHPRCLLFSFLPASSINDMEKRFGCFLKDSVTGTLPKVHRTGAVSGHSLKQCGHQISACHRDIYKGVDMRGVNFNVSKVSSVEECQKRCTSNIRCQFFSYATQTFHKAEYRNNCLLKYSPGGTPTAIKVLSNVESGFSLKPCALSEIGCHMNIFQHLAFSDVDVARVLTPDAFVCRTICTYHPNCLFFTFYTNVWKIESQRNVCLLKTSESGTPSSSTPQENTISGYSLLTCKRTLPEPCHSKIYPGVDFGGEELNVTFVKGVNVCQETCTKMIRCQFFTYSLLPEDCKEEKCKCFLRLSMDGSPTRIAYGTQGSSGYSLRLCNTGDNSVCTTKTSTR
Protocol: The ability of the compounds disclosed herein to inhibit cellular kallikrein activity was quantified and the respective EC50 value was determined.
All dilutions were prepared in an assay buffer comprising 50 mM Tris-HCl pH 7.2, 150 mM NaCl, and 0.01% Triton X-100.
The ten solutions of the test compounds, prepared by serial dilution, were further diluted 50-fold in the assay buffer.
Human plasma is thawed on ice and centrifuged for 15 min at 4° C. to remove platelets. A 1 mM stock solution of ellagic acid is diluted to 8 μM and mixed with human plasma, after removing platelets, at a ratio of 1:0.8.
A 22.5 μL volume of the final mixture of human plasma and ellagic acid was added to a 96-well microwell plate and the plate was incubated for 15 min at 37° C.
The CINH inhibitor at various concentrations, prepared by serial dilutions as described above, were added to the inhibitor control wells. […] Each CINH concentration is tested in duplicates.
The test compounds at various concentrations, also prepared by serial dilutions as described above, are added to the test wells. […] Each test compound concentration was tested in duplicates.
In addition to the inhibitor control and test wells, the 96 well assay plate includes positive control wells which contained the mixture of human plasma and ellagic acid without C1NH inhibitor or test compounds, and background wells which contained neither the mixture of human plasma and ellagic acid nor the test compounds. The total volume of liquid in positive control and background wells was brought up to 35 μL, using the assay buffer.
The assay plate containing C1NH inhibitors and test compounds mixed with human plasma and ellagic acid and appropriate controls was incubated at 37° C. for 5 min. […] The reagents were mixed well by shaking the plate gently for 30 sec.
The enzyme reaction was quantified by immediate kinetic reading of the assay plate using excitation/emission wavelengths of 330 nm/440 nm respectively. Fluorescence intensity was recorded for 60 min, using a time interval of 43 sec.
The inhibition activity of the test compounds were evaluated using the EC50 values, calculated according to the dose-response curve of the test compounds, fitted using the “log(inhibitor)−response (variable slope)” equation in GraphPadPrism software (GraphPad Software, Inc.).
The percentage inhibition was calculated using the following equation:
[formula] where, Mean (BG) is the average value of the fluorescence intensity of the background wells and Mean (PC) is the average value of the fluorescence intensity of the positive control wells.
Table 4 provides the EC50 values of various compounds disclosed herein.

Chain of human plasma kallikrein (P03952 391-638): as the sequence (P03952 391-638) above
Chain of human plasma kallikrein (P03952 20-390 partner): as the sequence (P03952 20-390 partner) above

Row | SMILES | IC50 [1] [nM] | EC50 [2] [nM]
1 | Cc1cc(N)nc(C)c1CNC(=O)c1ccnc(Cc2cc3cc(Cl)cn3cn2)c1 [Example 153, N-((6-amino-2,4-dimethylpyridin-3-yl)methyl)-2-((6-chloropyrrolo[1,2-c]pyrimidin-3-yl)methyl)isonicotinamide] | < 100 | < 100
2 | Nc1nc(C(F)(F)F)n2cc(CNC(=O)c3ccnc(Cc4ccc5ncc(Cl)cc5c4)c3)ccc12 [Example 186, N-((1-amino-3-(trifluoromethyl)imidazo[1,5-a]pyridin-6-yl)methyl)-2-((3-chloroquinolin-6-yl)methyl)isonicotinamide] | < 100 | < 100
3 | Cc1c(CNC(=O)c2ccnc(Cc3ccc4ncc(Cl)cc4c3)c2)ccc2c(N)nccc12 [Example 177, N-((1-amino-5-methylisoquinolin-6-yl)methyl)-2-((3-chloroquinolin-6-yl)methyl)isonicotinamide] | < 100 | < 100
4 | Cc1cnc2c(S(N)(=O)=O)cc(Cc3cc(C(=O)NCc4ccc5[nH]cc(Cl)c5c4F)ccn3)cc2c1 [Example 290, N-((3-chloro-4-fluoro-1H-indol-5-yl)methyl)-2-((3-methyl-8-sulfamoylquinolin-6-yl)methyl)isonicotinamide] | < 100 | 100 to 1000
5 | Cc1nc(N)ccc1CNC(=O)c1ccnc(Cc2cc(C(C)(C)O)c3ncc(Cl)cc3c2)c1 [Example 220, N-((6-amino-2-methylpyridin-3-yl)methyl)-2-((3-chloro-8-(2-hydroxypropan-2-yl)quinolin-6-yl)methyl)isonicotinamide] | < 100 | < 100
6 | Nc1nccc2cc(CNC(=O)c3ccnc(Cc4ccc5ncc(Cl)cc5c4)c3)c(F)cc12 [Example 180, N-((1-amino-7-fluoroisoquinolin-6-yl)methyl)-2-((3-chloroquinolin-6-yl)methyl)isonicotinamide] | < 100 | 100 to 1000
7 | Cc1cc(N)nc(C)c1CNC(=O)c1ccnc(Cc2cc3cc(Cl)cnc3cn2)c1 [Example 148, N-((6-amino-2,4-dimethylpyridin-3-yl)methyl)-2-((3-chloro-1,7-naphthyridin-6-yl)methyl)isonicotinamide] | < 100 | < 100

Further lines, results first:

Row | IC50 [1] [nM] | EC50 [2] [nM] | SMILES
8 | < 100 | < 100 | Cc1nc(N)ccc1CNC(=O)c1ccnc(Cc2cc(S(N)(=O)=O)c3ncc(Cl)cc3c2)c1 [Example 236]
9 | < 100 | 100 to 1000 | Cc1cnc2c(S(N)(=O)=O)cc(Cc3cc(C(=O)NCc4n[nH]c5ccc(Cl)cc45)ccn3)cc2c1 [Example 288, N-((5-chloro-1H-indazol-3-yl)methyl)-2-((3-methyl-8-sulfamoylquinolin-6-yl)methyl)isonicotinamide]
10 | < 100 | < 100 | CC(C)(O)c1cc(Cc2cc(C(=O)NCc3cnc4[nH]cc(Cl)c4c3)ccn2)cc2cc(Cl)cnc12 [Example 223, N-((3-chloro-1H-pyrrolo[2,3-b]pyridin-5-yl)methyl)-2-((3-chloro-8-(2-hydroxypropan-2-yl)quinolin-6-yl)methyl)isonicotinamide]
11 | < 100 | < 100 | Cc1cc(N)nc(C)c1CNC(=O)c1ccnc(Cc2ccc3ncc(C4CC4)cc3c2)c1 [Example 243, N-((6-amino-2,4-dimethylpyridin-3-yl)methyl)-2-((3-cyclopropylquinolin-6-yl)methyl)isonicotinamide]
12 | < 100 | 100 to 1000 | O=C(NCc1cnc2[nH]cc(Cl)c2c1)c1ccnc(Cc2ccc3ncc(C(F)(F)F)cc3c2)c1 [Example 231, N-((3-chloro-1H-pyrrolo[2,3-b]pyridin-5-yl)methyl)-2-((3-(trifluoromethyl)quinolin-6-yl)methyl)isonicotinamide]
13 | < 100 | < 100 | Cc1cc(N)nc(C)c1CNC(=O)c1ccnc(Cc2ccc3ncc(C(F)(F)F)cc3c2)c1 [Example 228, N-((6-amino-2,4-dimethylpyridin-3-yl)methyl)-2-((3-(trifluoromethyl)quinolin-6-yl)methyl)isonicotinamide]
